Laboratory results taken from patent US20250144099A1, “INK4 TUMOR SUPPRESSOR PROTEINS MEDIATE RESISTANCE TO CDK4/6 KINASE INHIBITORS” (MEMORIAL SLOAN-KETTERING CANCER CENTER, priority 2021, published 2025).
Entries after “also recorded” stand apart in the source; their conditions may differ.

How the values were obtained:
[1] = molecular target: T1, CDK4 (Homo sapiens, UniProt P11802); test: Immunoblotting of CDK4 degradation in cells; type: cell-based
T1 construct: CDK4 and CDK6 were immunoprecipitated from isogenic drug sensitive (MCF7 parental cells with low CDK6); endogenous in cells; host or cells: MCF-7 parental and MCF-7 FAT1 CRISPR knockout (CDK6-high) cells
T1 sequence (P11802 whole entry): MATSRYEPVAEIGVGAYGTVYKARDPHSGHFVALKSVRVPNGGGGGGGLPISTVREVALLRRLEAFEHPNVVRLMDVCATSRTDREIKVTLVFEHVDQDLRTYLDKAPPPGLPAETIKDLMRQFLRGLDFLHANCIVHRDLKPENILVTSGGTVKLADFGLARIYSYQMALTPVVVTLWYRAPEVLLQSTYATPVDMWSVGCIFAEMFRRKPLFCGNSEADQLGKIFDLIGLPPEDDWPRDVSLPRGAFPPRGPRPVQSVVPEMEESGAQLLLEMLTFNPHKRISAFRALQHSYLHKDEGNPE
T1 sequence (P24385 whole entry partner): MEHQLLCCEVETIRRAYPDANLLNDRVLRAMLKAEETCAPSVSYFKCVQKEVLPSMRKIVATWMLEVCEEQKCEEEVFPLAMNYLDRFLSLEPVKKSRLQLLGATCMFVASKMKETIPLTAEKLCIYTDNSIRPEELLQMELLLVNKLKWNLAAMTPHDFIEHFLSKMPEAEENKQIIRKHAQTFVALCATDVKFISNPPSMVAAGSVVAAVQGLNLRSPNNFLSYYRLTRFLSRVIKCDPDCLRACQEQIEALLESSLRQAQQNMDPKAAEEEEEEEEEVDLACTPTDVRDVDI
Procedure: Cell lysates were collected in RIPA buffer (Thermo Fisher Scientific) supplemented with protease and phosphatase inhibitors (Pierce). Protein concentration was quantified by using the BCA kit (Fisher Scientific). […] of protein lysates were loaded onto 4-12% SDS-PAGE gels (Invitrogen) for electrophoresis and transferred onto nitrocellular membranes. Blots were blocked with Intercept™ (TBS) Blocking Buffer (LI-COR Bioscience #927-60001) and incubated with primary antibody at 4° C. overnight. Secondary antibodies conjugated with fluorescence (LI-COR Bioscience #926-68071 and #926-32210) were incubated for 1 h at room temperature and blots were scanned by Odyssey Clx Imaging System from LI-COR Bioscience.

[2] = tested on: MCF-7 CDK6-high cells (FAT1 loss); test: Cell viability assay (Resazurin); type: cell-based, human; conditions: day 7
Procedure: (§1) Cell viability was measured by Resazurin (R&D Systems, Minneapolis, MN, USA) as described previously (51). Briefly, 1,500 cells were seeded in a 96-well plate and allowed to recover overnight. Cells were treated with drugs at day 0. Resazurin was added to the cells 4 hours prior to the measurements on day 3, day 5 and day 7. Fluorescent intensity was measured using a microplate reader (SpectraMax M5, Molecular Devices, Sunnyvale, CA, USA). IC50 was calculated by GraphPad Prism 7.0 using a sigmoidal regression model.

[3] = tested on: MCF-7 parental cells; test: Cell viability assay (Resazurin); type: cell-based, human; conditions: day 7
Procedure: as §1

[4] = tested on: T47D parental and CDK6-overexpressing cells; test: Cell proliferation assay; type: cell-based, human; conditions: recorded at day 3, day 5 and day 7
Procedure: as §1

[5] = tested on: MOLT4 cells; test: Global quantitative mass spectrometry proteomics; type: cell-based, human; conditions: 250 nM, 5 h
Procedure: Molt4 cells were treated with 250 nM of compounds BSJ-05-017 or BSJ-03-096 (singlicate) or DMSO control (biological triplicate) for 5 hours. Cells were harvested by centrifugation and prepared for mass spectrometry as described previously (28). Data were collected as reported (28). LC-MS data were analyzed using Proteome Discoverer 2.4 (Thermo Fisher Scientific), as previously described (28). Reporter ion intensities were normalized and scaled using in-house scripts in the R framework (63). Statistical analysis was carried out using the limma package within the R framework (64).

[6] = Pharmacokinetic study; type: in vivo, C57BL/6 male mice
Procedure: Pharmacokinetic study. C57BL/6 male mice were dosed with BSJ-05-017 solution formulation (i.p., 5/95 DMSO/10% captisol, dose 25 mg/kg) and BSJ-03-096 solution formulation (p.o., 5/95 DMSO/10%, dose 10 mg/kg). Blood samples were collected at 0.08, 0.25, 0.5, 1, 2, 4, 6, 8 and 24 hr. The blood samples were collected from sets of three mice at each time point in microcentrifuge tubes containing K2EDTA as an anticoagulant. Plasma samples were separated by centrifugation and stored below −70° C. until bioanalysis. All samples were processed for analysis by precipitation using acetonitrile and analyzed with a partially validated LC/MS/MS method (LLOQ −1.22 ng/mL for IV and PO, LLOQ −5.02 ng/mL for IP). Pharmacokinetic parameters were calculated using the noncompartmental analysis tool of WinNonlin Enterprise software (Version 6.3).

[7] = tested on: CDK6-high (FAT-1 loss) tumors; test: Pharmacodynamic study in tumor-bearing mice (immunoblotting of tumors); type: in vivo, NSG mice; conditions: 25 mg/kg i.p., 3 consecutive days, tumors collected at 6 h
Procedure: Pharmacodynamic study. NOD.Cg-Prkdc Il2rg<tm1Wjl>/SzJ (NSG) mice were obtained from the Jackson Laboratory (Stock #: 005557). Each mouse was injected with FAT1 loss cells subcutaneously 1 week after the implantation of estradiol pellets (25 mg). After the tumors reached 200 mm^3, mice were treated for 3 consecutive days with BSJ-05-017 at 25 mg/kg. Tumors were collected at 6 h. Lysates were prepared by homogenization in SDS-lysis buffer (˜1 ml/mg tissue) (50 mM Tris-HCl pH 7.4, 2% SDS) and boiled for 10 min, followed by brief sonication as described previously (65). Lysates were cleared by centrifugation at 14,000 g for 10 min and the supernatant was collected for western blotting.

[8] = tested on: patient-derived xenograft models; test: Patient-derived xenograft tumor growth; type: in vivo, mice; conditions: two patient-derived xenograft models; ribociclib at clinical equivalent dose
[9] = tested on: ~900 cell lines; test: PRISM cell line screening; type: cell-based; conditions: 8 pt. dose, 5 days
Procedure: Cell Lines. The current PRISM cell set consists of 931 cell lines representing more than 45 lineages including both adherent and suspension/hematopoietic cell lines. These cell lines largely overlap with and reflect the diversity of the Cancer Cell Line Encyclopedia (CCLE) cell lines (see https://portals.broadinstitute.org/ccle). Cell lines were grown in RPMI 10% FBS without phenol red for adherent lines and RPMI 20% FBS without phenol red for suspension lines. Parental cell lines were stably infected with a unique 24-nucleotide DNA barcode via lentiviral transduction and blasticidin selection. After selection, barcoded cell lines were expanded and QCed (mycoplasma contamination test, a SNP test for confirming cell line identity, and barcode ID confirmation). Passing barcoded lines were then pooled (20-25 cell lines per pool) based on doubling time and frozen in assay-ready vials.
PRISM Screening. […] These assay ready plates were then seeded with the thawed cell line pools. […]
Barcode Amplification and Detection. Each cell line's unique barcode is located at the end of the blasticidin resistance gene and gets expressed as mRNA. […] Finally, Luminex beads that recognize the specific barcode sequences in the cell set were hybridized to the PCR products and then detected using a Luminex scanner which reports signal as a median fluorescent intensity (MFI).

In the case of `CC(=O)c1c(C)c2cnc(Nc3ccc(N4CCN(CCCCC(=O)N[C@H](C(=O)N5C[C@H](O)C[C@H]5C(=O)N[C@@H](C)c5ccc(-c6scnc6C)cc5)C(C)(C)C)CC4)cn3)nc2n(C2CCCC2)c1=O` [BSJ-05-017, (2S,4R)-1-((S)-2-(5-(4-(6-((6-acetyl-8-cyclopentyl-5-methyl-7-oxo-7,8-dihydropyrido[2,3-d]pyrimidin-2-yl)amino)pyridin-3-yl)piperazin-1-yl)pentanamido)-3,3-dimethylbutanoyl)-4-hydroxy-N—((S)-1-(4-(4-methylthiazol-5-yl)phenyl)ethyl)pyrrolidine-2-carboxamide], the “degradation of CDK4” value ([1]; FAT1 loss / CDK6-high CDK4/6i-resistant MCF7 cells, 24 h treatment) is reported as “most significant degradation of both CDK4 and CDK6; also recorded: high potency in degrading CDK4 and CDK6”, the “degradation of CDK4” value ([1]; MCF7 cells with overexpression of CDK6) is reported as “effectively degrade CDK4 and CDK6” and the “inhibition of cell growth” value [2] is reported as “equal potency; also recorded: equipotent in suppressing proliferation”. The “inhibition of cell growth” value [3] was “equal potency; also recorded: equipotent in suppressing proliferation”, the “inhibition of cell growth” value [4] was “inhibits the growth of both T47D parental and CDK6-overexpressing cells” and the “selectivity in global proteomics” value [5] was “highly selective for CDK4 and CDK6”. For the same molecule, the Cmax ([6]; male, C57BL/6, mouse, plasma, ip, single dose 25 mg/kg i.p.) was 2600 nM, the concentration at 24 h ([6]; male, C57BL/6, mouse, plasma, ip, single dose 25 mg/kg i.p., read-out: plasma concentration at 24h post dosing) was about 100 nM and the metabolic stability ([6]; single dose in mice, i.p. or p.o.) was “good metabolic stability”. For the same molecule, the “Rb1 phosphorylation and E2F1 expression in tumors” value [7] was “significant suppression of Rb1 phosphorylation and E2F1 expression”, the “degradation of CDK4 and CDK6 in tumors” value [7] was “near complete degradation of CDK4 and CDK6” and the “inhibition of tumor growth” value [8] was “effective in inhibiting tumor growth”. The “inhibition of cell growth across cell lines (AUC of cell viability)” value [9] was “cells of other cancer types are also sensitive”.
